Test results taken from patent publication US20240050491A1 (priority 2021, published 2024).

Experiments:
Salmonella = test: Decontamination of Salmonella contaminated alfalfa seeds by Ca-hypochlorite; assay type: in vivo, Salmonella enterica serovar Typhimurium; conditions: 20,000 ppm
Procedure: FIGS. 18A-B are graphs illustrating the influence of decontamination by Ca-hypochlorite, of Salmonella contaminated alfalfa seeds, on the concentration of Salmonella. The seeds were contaminated with Salmonella by dipping in 10^2-[…] CFU/ml. Decontamination was performed with 20,000 ppm Ca-hypochlorite. The number of Salmonella on the seeds (CFU/g seeds) was detected immediately after the contamination (A), and in the sprouts (B) after 3 days of sprouting (CFU/g sprouts). The results are representing the average and standard error of 3 independent experiments in duplicates. When bacteria were not detected, enrichment of the samples was performed in BPW. (*) Growth after enrichment. (−) No growth.
(§1) Seed sterilization by Ca-hypochlorite: To assess the ability of Ca-hypochlorite to inactivate the Salmonella enterica serovar Typhimurium (STm) strain SL1344 on the seeds, alfalfa seeds were pre-contaminated with increasing concentrations of STm cells. […] After 4 days the alfalfa sprouts were extracted and the STm concentration in the extract was analyzed. Salmonella Typhimurium SL1344 survival in sprouts in the presence or absence of Bacillus BX-77 was analyzed after disinfection by Ca-hypochlorite of alfalfa seeds contaminated by 10^2 or 10^5 CFU of STm. […]

[1] = tested on: Salmonella Typhimurium SL1344; test: Salmonella survival in alfalfa sprouts with BX-77 and/or Ca-hypochlorite disinfection; assay type: in vivo
From the text: FIG. 19 is a graph illustrating Salmonella Typhimurium SL1344 survival in sprouts in the presence of BX-77 or absence of BX-77 after disinfection by Ca-hypochlorite of Salmonella contaminated seeds. Alfalfa seeds were contaminated by 10^2 or 10^5 CFU of Salmonella, dried, decontaminated by Ca-hypochlorite and seeded in the presence or absence of BX-77. Salmonella infected seeds were used as controls in the absence or the presence of BX-77. The experiment was repeated twice and each set included 5 cups.
as §1, with “cells. Breifly, seeds (1 g) 15 were contaminated with the desired number of bacteria by adding 20 μL of STm suspended in SDDW and mixing by a sterile plastic spreader and then the seeds were dried at room-temp for 30 minutes.” for “cells.”

For `[Ca+2].[O-]Cl.[O-]Cl` [Ca-hypochlorite, calcium hypochlorite], which efficiency of decontamination (Salmonella; higher Salmonella concentrations, 3 day sprouts) is on record?
The efficiency of decontamination was “not efficient”.

And the efficiency of decontamination (Salmonella; low Salmonella concentrations up to 10^3/ml, seeds and 3 day sprouts)?
Its efficiency of decontamination is “Salmonella was not detected even after sprouting”.

What about the “killing of Salmonella cells” value ([1]; seeds infected by 10^2 CFU of Salmonella) of the same compound?
Its value is “killed all the Salmonella cells”.

What about the “reduction of Salmonella growth” value ([1]; seeds infected by 10^5 CFU of Salmonella) of the same compound?
Its value is 2 log CFU/g.
